In PMC12293736, “Discovery of N-(6-Methoxypyridin-3-yl)quinoline-2-amine Derivatives for Imaging Aggregated α-Synuclein in Parkinson’s Disease with Positron Emission Tomography” (Cells, 2025):
Several values for one entry are separate records, joined by “and”; a condition that tells them apart may be missing. Equal values may be shown once. Entries after “also recorded” stand apart in the source; their conditions may differ. Read-outs that look alike come from different tables or passages of the source.

Experiments:
[1] = biological target: T1, LBD-amplified fibrils (α-synuclein) (Homo sapiens, UniProt P37840); experiment: homologous competitive binding assay of radiotracers, LBD-amplified fibrils
T1 construct: made in house
Experimental: (§1) The binding affinity determination (Kd) was performed using homologous competitive binding assays of radiotracers with recombinant α-synuclein fibrils, LBD-amplified fibrils, PD tissues, and AD brain tissue homogenates. The brain tissue from PD and AD cases was obtained from the Banner Sun Health Research Institute Brain and Body Donation Program of Sun City, Arizona.
(§2) These direct binding assays used a fixed concentration of either recombinant α-synuclein fibrils, LBD-amplified fibrils, PD, AD tissue, or a radioligand ([^11C]7f, [^18F]7j, [^11C]8i and [^125I]8i, [^3H]8i) and varying concentration ranges of the corresponding homologous non-radiolabeled standard reference compound. In brief, various concentrations of corresponding cold compounds were diluted in 30 mM of Tris-HCl at pH 7.4, with 0.1% BSA. The direct binding assay was carried out by mixing (1) recombinant α-synuclein fibrils, LBD-amplified fibrils, PD, or AD tissue; (2) a radioligand ([^11C]7f or [^18F]7j); and (3) various concentrations of corresponding cold compounds, with incubation at 37 °C for 1 h for [^18F]7j and 30 min for [^11C]7f. After incubation, the bound and free radioligands were separated via vacuum filtration through 1.0 µm glass fiber filters in 96-well filter plates (MilliporeSigma, Burlington, MA, USA), followed by three 200 µL washes with ice-cold assay buffer. The filters containing the bound ligand were mixed with 150 µL of Optiphase Supermix scintillation cocktail (PerkinElmer) and counted immediately. All data points were obtained in triplicate. The dissociation constant (Kd) and the maximal number of binding site (Bmax) values were determined by fitting the data to the following equation: bound = (Bmax × [radioligand])/([radioligand] + [unlabeled compound] + Kd) + bottom. This was achieving via non-linear regression using GraphPad Prism software (version 4.0), where (bottom) is the non-specific binding and the [radioligand], [unlabeled compound], and Kd are expressed in nM. The synthesis of the tested compounds is described in the Supporting Information. […]
(§3) c) Direct radioactive competitive binding assay of radiotracers [11C]7f, [ 18 F]7j, [ 11C]8i and [ 125 I]8i and [ 3H]8i Affinity determination (Kd) using direct radioactive competitive binding assay with recombinant α-synuclein fibrils, Banner PD tissues, AD brain tissue homogenates. Brain tissue from PD and AD cases was obtained from the Banner Sun Health Research Institute Brain and Body Donation Program of Sun City, Arizona. […]
(§4) These direct binding assays used a fixed concentration of either α-synuclein fibrils or AD tissue and the radioligand ([11C]7f, [ 18F]7j, [ 11C]8i and [ 125 I]8i, [ 3H]8i ) and varying concentration ranges of corresponding homologous non-radiolabeled standard reference compound. In brief, the standard homologous reference compound was diluted in 30 mM Tris-HCl pH 7.4, 0.1% BSA. Reactions were incubated at 37 °C for 1 h before quantifying bound radioligand.
(§5) Bound and free radioligands were separated by vacuum filtration through 1.0 µm glass fiber filters in 96-well filter plates (Millipore), followed by three 200 µL washes with ice-cold assay buffer. Filtrates containing the bound ligand were mixed with 150 µL of Optiphase Supermix scintillation cocktail (PerkinElmer) and counted immediately. All data points were performed in triplicate. The dissociation constant (Kd) and the maximal number of binding sites (Bmax) values were determined by fitting the data to the equation. […]

PD brain tissues = biological target: T2, PD brain tissues (Homo sapiens, UniProt P37840); experiment: homologous competitive binding assay of radiotracers, PD tissue; conditions: for binding to PD tissues versus AD and control brain tissues: in words
T2 construct: The brain tissue from PD and AD cases was obtained from the Banner Sun Health Research Institute Brain and Body Donation Program; tissue Banner Sun Health Research Institute Brain and Body Donation Program; host or cells: human PD post mortem brain tissue
Experimental: as §1, §2, §3, §4
as §5, with “equation. Bound = (Bmax*[Radioligand])/([Radioligand] + [Unlabeled compound] + Kd) + Bottom by nonlinear regression using GraphPad Prism software (version 4.0), where (Bottom) is nonspecific binding and [Radioligand], [Unlabeled compound], and Kd is expressed in nM” for “equation.”
Production of [ 11C]CH3I followed the reported method. Briefly, [ 11C]CH3I was produced on-site from [ 11C]CO2 using a GE PETtrace MeI Microlab. Up to 1.4 Ci of [ 11C]carbon dioxide was produced from the JSW BC-16/8 cyclotron […]

[2] = biological target: AD brain tissue homogenates; experiment: homologous competitive binding assay of radiotracers, AD tissue; design: species or system human; conditions: average, NB = no binding
Experimental: as §1
These direct binding assays used a fixed concentration of either recombinant α-synuclein fibrils, LBD-amplified fibrils, PD, AD tissue, or a radioligand ([^11C]7f, [^18F]7j, [^11C]8i and [^125I]8i, [^3H]8i) and varying concentration ranges of the corresponding homologous non-radiolabeled standard reference compound. […] The filters containing the bound ligand were mixed with 150 µL of Optiphase Supermix scintillation cocktail (PerkinElmer) and counted immediately. […] The dissociation constant (Kd) and the maximal number of binding site (Bmax) values were determined by fitting the data to the following equation: bound = (Bmax × [radioligand])/([radioligand] + [unlabeled compound] + Kd) + bottom. […]
Bound and free radioligands were separated by vacuum filtration through 1.0 µm glass fiber filters in 96-well filter plates (Millipore), followed by three 200 µL washes with ice-cold assay buffer. […] The dissociation constant (Kd) and the maximal number of binding sites (Bmax) values were determined by fitting the data to the equation. […]

[3] = PET brain imaging studies in non-human primates; type: in vivo, cynomolgus macaques; conditions: for blood–brain barrier penetration / brain washout kinetics: in words
Experimental: All animal experiments were conducted under a research protocol approved by the Washington University Institutional Animal Care and Use Committee (IACUC). The NHP study was conducted in the NHP microPET facility at the Washington University School of Medicine in St. Louis. Three adults male cynomolgus macaques (9.73 ± 0.71 kg) were used in this study. Each animal was fasted for 12 h prior to the PET scans. Anesthesia was induced with an intramuscular injection of ketamine (10–20 mg kg^−1) and glycopyrrolate (0.013–0.017 mg kg^−1) to reduce salivary gland and respiration secretions. The animal was intubated, and anesthesia was maintained at 40–50% N2O and 1.4–2.0% isoflurane/oxygen throughout the procedure. A percutaneous venous catheter was used for the radiotracer injection. During the PET scanning session, the head was positioned supine with the brain in the center of the field of view. The PET scans were performed with a microPET Focus 220 scanner (Concorde/CTI/Siemens Microsystems, Knoxville, TN, USA). A 10 min transmission scan was performed to check the positioning; once confirmed, a 45 min transmission scan was obtained for attenuation correction. Subsequently, a 2 h dynamic emission scan was acquired after the administration of 365.44 ± 26.69 MBq of [^11C]7f, [^11C]8i, or [^18F]7j via the venous catheter. The PET data were collected from 0 to 120 min with the following timeframes: 3 × 1 min, 4 × 2 min, 3 × 3 min, and […]. The PET images were reconstructed using a filtered back projection method into a volume size of 128 × 128 × 95 and a voxel size of 1.85 × 1.85 × 0.796 mm^3, with all corrections (scatter, decay, random, normalization, etc.) applied. The dynamic PET images were motion-corrected and then co-registered to previous acquired structural MPRAGE MR images. The INIA19 primate brain and atlas (https://www.nitrc.org/projects/inia19/, accessed on 2 August 2023) were then co-registered to the MR images, so as to obtain the regional time−activity curves (TACs) in the regions of interests (ROIs). The radioactivity uptake was normalized using the body weight and the injected dose to obtain the standardized uptake values (SUVs). A voxel-wise reference Logan plot was performed using the cerebellum as the reference region to obtain the distribution volume ratio (DVR), with a linear time range of 30 min to 120 min:(1) ∫0t Ctτdτ/Ctt=DVR∫0t Crτdτ/Ctt+β
Here, Cr(t) is the regional time activity curve (TAC) of the reference tissue, Ct(t) is the pixelwise time activity curves of the target tissue tracer concentration measured via PET, and DVR is the distribution volume ratio of the target to the reference tissue.
The image processing was performed using MIAKAT in MATLAB (R2023a, The MathWorks, Inc., Natick, MA, USA).

[4] = biological target: T3, recombinant α-synuclein fibrils (Homo sapiens, UniProt P37840); experiment: radioactive competitive binding assay with [^3H]BF2846 (Tables 1 and 2: or [^18F]7j with LBD-amplified fibrils); conditions: running text b71; fibril type and assay not stated
[5] = biological target: T3, recombinant α-synuclein fibrils; experiment: photo-crosslinking of α-synuclein fibrils, digestion and LC-MS/MS; conditions: UV irradiation, GluC or trypsin digest
Excerpt: To gain additional insight into the binding site of these molecules, a photoaffinity variant (TZ-CLX) was synthesized containing a diazirine as a photo-crosslinking motif. Closely resembling the 6-substituted lead compounds 7j and 8i, this compound covalently inserts into C-H bonds on nearby residues in the α-synuclein fibril binding site upon irradiation with ultraviolet (UV) light. Using established procedures, the crosslinked fibrils can then be disaggregated, digested using either GluC or trypsin, and analyzed via LC-MS/MS to ascertain residue-level binding information. […] Minor crosslinks were also identified in the N-terminal binding site, primarily via trypsin digestion and corresponding to the peptide EGVVAAAEK (residues 13–21, proximal to site 2, Figure 3). […]
Bottom-up LC-MS/MS Analysis. Peptide mixtures resulting from labeling and digestion were resolubilized in 25 µl of water with 0.1%TFA and analyzed by a Q-Exactive HF mass spectromet er (Thermo Fisher Scientific; Waltham, MA) coupled to a Dionex Ultimate 3000 UHPLC system (Thermo Fisher Scientific; Waltham, MA) equipped with an in- house made 15 ௗcm long fused silica capillary column (75 μm ID), packed with reversed phase Repro-Sil Pure C18-AQ 2.4 μm resin (Dr. Maisch GmbH, Ammerbuch, Germany). […]

[6] = Figure 5, single representative curve, read-out: Kd, LBD amplified fibrils, representative assay
[7] = homologous competitive binding, average values for 7f (n = 3) and 7j (n = 15), read-out: Kd, LBD-amplified fibrils
[8] = homologous competitive binding, average (n = 4 for 7j), NB = no binding, read-out: Kd, PD tissue

Structure (SMILES) | Kd [1, 6] [nM] | Kd [1, 7] | Kd (PD brain tissues; [8]) [nM] | blood–brain barrier penetration [3] | brain washout kinetics [3] | time of peak brain uptake post-injection ([3]; n = 1 per tracer) [min] | binding to PD tissues versus AD and control brain tissues (PD brain tissues) | other results
COc1ccc(Nc2ccc3cc(OCC[18F])ccc3n2)cn1 [[^18F]7j] | 26 | 21 ± 8.7 nM | 19.5 ± 15.5 | penetrated the BBB well | rapid washout from all brain regions | 3 |  | Kd (PD brain tissues; Figure 5, single representative curve, read-out: Kd, PD tissue, representative assay): 3.6 nM; Kd, AD tissue [2]: no binding
COc1ccc(Nc2ccc3cc(O[11CH3])ccc3n2)cn1 [[^11C]7f] | 11 | 15.5 ± 4.8 nM |  | penetrated the BBB well | rapid washout from all brain regions | 3 |  | Kd [2]: 62.7 ± 68.8 nM
[11CH3]Oc1ccc(Nc2ccc3cc(OC/C=C/I)ccc3n2)cn1 [[^11C]8i] |  |  |  | penetrated the BBB very well | slow |  | potent selectivity for PD brain tissues over AD and control tissues | Kd [4]: 5 nM; initial brain uptake, standardized uptake value (SUV) ([3]; 3 min post-injection, n = 1 per tracer): about 3 g/mL; brain uptake ratio from 3 min to 120 min ([3]; washout kinetics, n = 1): about 1.5
C#CCCC1(CCOc2ccc3nc(Nc4ccc(OC)nc4)ccc3c2)N=N1 [TZ-CLX, 6-(2-(3-(But-3-yn-1-yl)-3H-diazirin-3-yl)ethoxy)-N-(6-methoxypyridin-3-yl)quinolin-2-amine] |  |  |  |  |  |  |  | binding site on α-synuclein fibrils by photo-crosslinking [5]: significant selectivity for the C-terminal binding sites of α-synuclein fibrils
COc1ccc(Nc2ccc3cc(OC/C=C/[125I])ccc3n2)cn1 [[^125I]8i] |  | 5 nM and 4.8 nM | 5 |  |  |  | selective for PD tissues versus AD or control tissues; also recorded: very potent for PD tissues but not for control and AD brain tissues | Bmax, high affinity binding site, PD tissues (PD brain tissues; two-site binding): 50 nM; Bmax, low affinity binding site, PD tissues (PD brain tissues; two-site binding): 12 µM; Kd (PD brain tissues; two-site binding, read-out: Kd, high affinity binding site, PD tissues): 0.61 nM
